From patent US12043600B2, “Microbiocidal compounds” (SYNGENTA CROP PROTECTION AG, priority 2018, dated 2024)

Assays:
[1] = tested on: Glomerella lagenarium (Colletotrichum lagenarium); assay: Glomerella lagenarium (Colletotrichum lagenarium)/Liquid Culture (Anthracnose); format: cell-based; details: Colletotrichum orbiculare, liquid culture, compared to untreated control
[2] = tested on: Phaeosphaeria nodorum (Septoria nodorum); assay: Phaeosphaeria nodorum (Septoria nodorum)/Wheat/Leaf Disc Preventative (Glume Blotch); format: in vivo; details: Parastagonospora nodorum, foliar, wheat leaf disc preventative, compared to untreated control
Procedure, shortened: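 Wheat cv. Kanzler leaf discs on agar were sprayed with formulated compound diluted in water and inoculated with P. nodorum spores 2 days later. Discs kept at 20 °C, 75% rh, 12 h light/dark; percent disease control versus untreated scored 5–7 days after application.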

[3] = tested on: Sclerotinia sclerotiorum; assay: Sclerotinia sclerotiorum/Liquid Culture (Cottony Rot); format: cell-based; details: liquid culture, compared to untreated control
Procedure: Mycelia fragments of a newly grown liquid culture of the fungus are directly mixed into nutrient broth (PDB potato dextrose broth). After placing a (DMSO) solution of test compound into a microtiter plate (96-well format) the nutrient broth containing the fungal material is added.

[4] = tested on: Phakopsora pachyrhizi; assay: Phakopsora pachyrhizi/Soybean/Preventative (Soybean Rust); format: in vivo; details: foliar, 288 h, 200 ppm, soybean leaf disc preventative, compared to untreated control, read-out: control of Phakopsora pachyrhizi
[5] = tested on: Puccinia recondita f. sp. tritici; assay: Puccinia recondita f. sp. tritici/Wheat/Leaf Disc Preventative (Brown Rust); format: in vivo; details: foliar, 200 ppm, wheat leaf disc preventative, compared to untreated control, read-out: control of Puccinia recondita f. sp. tritici
[6] = tested on: Monographella nivalis (Microdochium nivale); assay: Monographella nivalis (Microdochium nivale)/Liquid Culture (Foot Rot Cereals); format: cell-based; details: liquid culture, compared to untreated control
Procedure, shortened: (§1)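 First, the test compound in DMSO is placed in the wells. Next, potato dextrose broth seeded with conidia taken straight from cryogenic storage is added, and the culture is left to grow.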

[7] = tested on: Plasmopara viticola; assay: whole plant or invertebrate; format: in vivo; details: foliar, read-out: control of Plasmopara viticola
[8] = tested on: Puccinia recondita f. sp. tritici; assay: Puccinia recondita f. sp. tritici/Wheat/Leaf Disc Curative (Brown Rust); format: in vivo; details: foliar, wheat leaf disc curative, compared to untreated control
Procedure, shortened: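 Curative leaf-disc test on wheat cv. Kanzler segments on agar, spore-inoculated and kept dark at 19° C, 75% rh; formulated compound in water applied 1 day after inoculation. Incubated at 19° C, 75% rh, 12 h light/12 h dark; percent disease control versus untreated scored 6-8 days after application.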

[9] = tested on: Magnaporthe grisea (Pyricularia oryzae); assay: whole plant or invertebrate; format: in vivo; details: foliar, read-out: control of Magnaporthe grisea
[10] = tested on: Phytophthora infestans; assay: whole plant or invertebrate; format: in vivo; details: in Solanum lycopersicum, foliar, read-out: control of Phytophthora infestans
[11] = tested on: Mycosphaerella arachidis (Cercospora arachidicola); assay: Mycosphaerella arachidis (Cercospora arachidicola)/Liquid Culture (Early Leaf Spot); format: cell-based; details: liquid culture, compared to untreated control
Procedure, shortened: as §1

[12] = tested on: Mycosphaerella graminicola (Septoria tritici); assay: Mycosphaerella graminicola (Septoria tritici)/Liquid Culture (Septoria Blotch); format: cell-based; details: Zymoseptoria tritici; 20 ppm; liquid culture; compared to untreated control
Procedure, shortened: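 Conidia from cryogenic storage mixed into potato dextrose broth and added to microtiter wells already holding DMSO solutions of test compound. Activity expressed as percentage disease control.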

[13] = tested on: Botryotinia fuckeliana (Botrytis cinerea); assay: Botryotinia fuckeliana (Botrytis cinerea)/Liquid Culture (Gray Mould); format: cell-based; details: liquid culture, compared to untreated control
Procedure: Conidia of the fungus from cryogenic storage are directly mixed into nutrient broth (Vogels broth). After placing a (DMSO) solution of test compound into a microtiter plate (96-well format), the nutrient broth containing the fungal spores is added.

[14] = tested on: Thanatephorus cucumeris (Rhizoctonia solani); assay: Thanatephorus cucumeris (Rhizoctonia solani)/Liquid Culture (Foot Rot, Damping-Off); format: cell-based; details: liquid culture, compared to untreated control
Procedure: Mycelia fragments of a newly grown liquid culture of the fungus are directly mixed into nutrient broth (PDB potato dextrose broth). After placing a (DMSO) solution of the test compounds into a microtiter plate (96-well format), the nutrient broth containing the fungal material is added.

[15] = tested on: Blumeria graminis f. sp. tritici (Erysiphe graminis f. sp. tritici); assay: Blumeria graminis f. sp. tritici/Wheat/Leaf Disc Preventative (Powdery Mildew on Wheat); format: in vivo; details: foliar, wheat leaf disc preventative, compared to untreated control
Procedure, shortened: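 Wheat cv. Kanzler leaf segments on agar sprayed with formulated compound, inoculated with powdery mildew 1 day later and held at 20° C, 60% rh (24 h dark, then 12 h light/12 h dark). Percent disease control versus untreated scored 6-8 days after application.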

[16] = tested on: Pyrenophora teres; assay: Pyrenophora teres/Barley/Leaf Disc Preventative (Net Blotch); format: in vivo; details: foliar, 200 ppm, barley leaf disc preventative, compared to untreated control, read-out: control of Pyrenophora teres
Procedure, shortened: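 Formulated compound, diluted in water, sprayed onto barley cv. Hasso leaf segments on agar; spore suspension inoculation followed 2 days after application. Results expressed as percentage disease control.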

[17] = tested on: Alternaria solani; assay: Alternaria solani/Tomato/Leaf Disc (Early Blight); format: in vivo; details: foliar, tomato leaf disc, compared to untreated control
Procedure, shortened: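 Tomato cv. Baby leaf disks on agar were sprayed with diluted formulated compound and inoculated with spores 2 days later. Incubation at 23° C./21° C. day/night, 80% rh, 12/12 h light; percent disease control versus untreated scored 5-7 days after application.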

| SMILES | inhibition of growth at 20 ppm [1] [%] | pest or weed control at 200 ppm [2] [%] | inhibition of growth at 20 ppm [3] [%] | pest or weed control at 200 ppm [4] [%] | pest or weed control at 200 ppm [5] [%] | melting point [°C] | inhibition of growth at 20 ppm [6] [%] | pest or weed control at 200 ppm [7] [%] | pest or weed control at 200 ppm [8] [%] | pest or weed control at 200 ppm [9] [%] | pest or weed control at 200 ppm [10] [%] | inhibition of growth at 20 ppm [11] [%] | inhibition of growth at 20 ppm [12] [%] | inhibition of growth at 20 ppm [13] [%] | inhibition of growth at 20 ppm [14] [%] | pest or weed control at 200 ppm [15] [%] | pest or weed control at 200 ppm [16] [%] | pest or weed control at 200 ppm [17] [%] |
| --- | --- | --- | --- | --- | --- | --- | --- | --- | --- | --- | --- | --- | --- | --- | --- | --- | --- | --- |
| CO/C=C(\Oc1cc(-n2ccc(C(C)C)n2)cc(C)c1C)C(=O)OC [Compound E-20, methyl (Z)-2-[5-(3-isopropylpyrazol-1-yl)-2,3-dimethyl-phenoxy]-3-methoxy-prop-2-enoate] | ≥ 80 | ≥ 80 | ≥ 80 | ≥ 50 | ≥ 80 | 103 to 105 | ≥ 80 | ≥ 80 | ≥ 80 | ≥ 80 | ≥ 80 | ≥ 80 | ≥ 80 |  |  |  |  |  |
| CO/C=C(\Oc1cc(-n2ccc(C(C)C(F)(F)F)n2)ccc1C)C(=O)OC (centres unmarked) [Compound E-23, methyl (Z)-3-methoxy-2-[2-methyl-5-[3-(2,2,2-trifluoro-1-methyl-ethyl)pyrazol-1-yl]phenoxy]prop-2-enoate] | ≥ 80 |  | ≥ 80 |  | ≥ 80 | 119 to 122 | ≥ 80 | ≥ 80 | ≥ 80 |  | ≥ 80 | ≥ 80 | ≥ 80 | ≥ 80 | ≥ 80 |  |  |  |
| C=C(c1ccn(-c2ccc(C)c(O/C(=C\OC)C(=O)OC)c2)n1)C(F)(F)F [Compound E-24, methyl (Z)-3-methoxy-2-[2-methyl-5-[3-[1-(trifluoromethyl)vinyl]pyrazol-1-yl]phenoxy]prop-2-enoate] | ≥ 80 | ≥ 80 | ≥ 80 |  | ≥ 80 |  | ≥ 80 | ≥ 80 | ≥ 80 | ≥ 80 | ≥ 80 | ≥ 80 | ≥ 80 | ≥ 80 | ≥ 80 | ≥ 80 |  |  |
| CO/C=C(\Oc1cc(-n2ccc(C3CCCCC3)n2)ccc1C)C(=O)OC [Compound E-36, methyl (Z)-2-[5-(3-cyclohexylpyrazol-1-yl)-2-methyl-phenoxy]-3-methoxy-prop-2-enoate] | ≥ 80 | ≥ 80 | ≥ 80 |  | ≥ 80 | 85 to 89 | ≥ 80 | ≥ 80 | ≥ 80 | ≥ 80 | ≥ 80 | ≥ 80 | ≥ 80 | ≥ 80 | ≥ 80 |  | ≥ 80 | ≥ 80 |
| CO/C=C(\Oc1cc(-n2ccc(C(F)(F)C(F)(F)F)n2)ccc1C)C(=O)OC [Compound E-69, methyl (Z)-3-methoxy-2-[2-methyl-5-[3-(1,1,2,2,2-pentafluoroethyl)pyrazol-1-yl]phenoxy]prop-2-enoate] | ≥ 80 |  | ≥ 80 |  | ≥ 80 | 117 to 120 | ≥ 80 | ≥ 80 | ≥ 80 | ≥ 80 |  | ≥ 80 | ≥ 80 |  | ≥ 80 | ≥ 80 |  |  |
| CO/C=C(\Oc1cc(-n2cc(Br)c(C)n2)ccc1C)C(=O)OC [Compound E-117, methyl (Z)-2-[5-(4-bromo-3-methyl-pyrazol-1-yl)-2-methyl-phenoxy]-3-methoxy-prop-2-enoate] | ≥ 80 |  | ≥ 80 |  | ≥ 80 | 120 to 122 | ≥ 80 | ≥ 80 | ≥ 80 |  |  | ≥ 80 | ≥ 80 |  |  | ≥ 80 |  |  |
| CCCCc1cnn(-c2ccc(C)c(O/C(=C\OC)C(=O)OC)c2)n1 [Compound F-3, methyl (Z)-2-[5-(4-butyltriazol-2-yl)-2-methyl-phenoxy]-3-methoxy-prop-2-enoate] | ≥ 80 | ≥ 80 | ≥ 80 |  | ≥ 80 | 68 to 70 | ≥ 80 | ≥ 80 | ≥ 80 | ≥ 80 |  | ≥ 80 | ≥ 80 |  |  |  |  |  |
| CO/C=C(\Oc1cc(-n2ncc(C3CCCCC3)n2)ccc1C)C(=O)OC [Compound F-7, methyl (Z)-2-[5-(4-cyclohexyltriazol-2-yl)-2-methyl-phenoxy]-3-methoxy-prop-2-enoate] | ≥ 80 | ≥ 80 | ≥ 80 |  | ≥ 80 | 120 to 122 | ≥ 80 | ≥ 80 | ≥ 80 | ≥ 80 |  | ≥ 80 | ≥ 80 |  |  | ≥ 80 | ≥ 80 |  |
